Laboratory results as given in patent publication US11952328B2, “Selective ship inhibitors for treating disease” (THE RESEARCH FOUNDATION FOR THE STATE UNIVERSITY OF NEW YORK, priority 2018, dated 2024).
“Also recorded” adds a separate entry of the source.

Tests used:
NK cells = assay: NK cell IFNγ production by intracellular flow cytometry after two-day in vivo treatment; design: species or system mice; settings: two-day 3AC vs vehicle
Description: FIGS. 3B-3E show activation of NK cells and T cells following exposure to the SHIP1 inhibitor 3AC in vivo. NK cells from two-day 3AC- or vehicle-treated mice were stimulated by incubation on uncoated plates, on plates coated with anti-NK1.1, anti-NKp46, or anti-NKG2D antibody, or on uncoated plates but in the presence of PMA and ionomycin. Representative flow plots (FIG. 3B) and box and whisker plots (FIG. 3C) show the frequency of NK cell production of IFNγ determined by intracellular flow cytometry. […] Anti-CD107a (LAMP-1) PE antibody was added for the final 5 hours of incubation. Degranulation of CD8+ T cells was determined by analysis of CD107a expression by flow cytometry. […]
SHIP1 is recruited directly to the T cell receptor (TcR), as well as to the scaffolding protein Dokl that limits T cell activation by the TcR (Reginald, K., Revisiting the timing of action of the PAG adaptor using quantitative proteomics analysis of primary T cells. J Immunol. (2015); 195: 5472-5481; Waterman, P. M. et al., The inositol 5phosphatase SHIP-1 and adaptors Dok-1 and 2 play central roles in CD4-mediated inhibitory signaling. Immunol Lett. (2012); 143: 122-130; Freeburn, R. W. et al., Evidence that SHIP-1 contributes to phosphatidylinositol 3,4,5-trisphosphate metabolism in T lymphocytes and can regulate novel phosphoinositide 3-kinase effectors. […]

RMA-Rael cells = assay: Acute rejection of RMA-Rael lymphoma, tumor burden by peritoneal lavage; assay type: in vivo, mice
Description: FIGS. 4A-4D show the effects of SHIP1 inhibition using 3AC in mice. 5×10^5 GFP-expressing RMA-Rael cells were injected into C57BL/6 (FIG. 4A), RAG1−/− (FIG. 4B), or into C57BL/6 hosts (FIG. 4C-4D) with antibody depleted (NK) or intact (Iso) NK cell compartment. Mice were treated with either SHIP inhibitor or vehicle for two days. Tumor burden was determined by flow cytometric analysis of peritoneal cavity contents recovered by peritoneal lavage performed on the third day. Graphs represent pooled data from two independent experiments using at least 4 SHIP inhibitor-treated mice and 4 vehicle-treated mice in each experiment. FIG. 4A (p=0.0433; Mann-Whitney U test). FIG. 4B (p=0.0007; Mann-Whitney U test). FIG. 4C (p=0.0153; Unpaired t test with Welch's correction). FIG. 4D (p=0.9188. Mann-Whitney U test).
To determine if acute SHIP inhibitor treatment promoted in vivo clearance of tumor cells expressing a ligand for such receptors, the ability of SHIP inhibitor treatment to increase host rejection of tumor targets in vivo using the C57BL/6-derived H2b T cell lymphoma, RMA-Rael was analyzed. NK cell mediated rejection of RMA- Rael cells requires perforin expression and is independent of IFNγ production, and thus this assay allows for interrogation of a different NK cell effector function than that analyzed in FIG. 3 (Hayakawa, Y. et al., Cutting edge: tumor rejection mediated by NKG2D receptor-ligand interaction is dependent upon perforin. J Immunol. (2002); 169: 5377-538). Mice were challenged with syngeneic tumor cells followed by treatment with 3AC or vehicle for 2 consecutive days. On the third day peritoneal lavage was performed to evaluate tumor burden. […] To assess whether NK cells contributed to acute tumor rejection the same experiment using NK cell depleted C57BL/6 hosts (DNK) was performed. […] This increase in tumor burden was not seen in vehicle treated mice that were also depleted of NK cells (FIG. 4D).

tumor = assay: Adoptive transfer of hematolymphoid cells from 3AC treated long-term survivors, survival after tumor challenge; assay type: in vivo, mice; settings: cells from tumor challenged, 3AC treated long-term surviving donor vs naive donor; recipients not treated
Description: To test for continued presence of such immunity, hematolymphoid cells were adoptively transferred from either a nave donor or from a tumor challenged, 3AC treated, long-term surviving (primed) donor into nave C57BL/6 hosts.

For `CC(C)CCC[C@@H](C)[C@H]1CC[C@H]2[C@@H]3CCC4C[C@H](N)CC[C@]4(C)[C@H]3CC[C@]12C` (stereo partly drawn) [Compound 3AC, 3-α-aminocholestane], the “NK cell IFNγ production” value (NK cells; stimulated with PMA and ionomycin) was “no difference”, the “NK cell IFNγ production” value (NK cells; stimulation with anti-NK1.1, anti-NKp46 or anti-NKG2D) was “significantly increased” and the tumor rejection (RMA-Rael cells; 3AC-treated hosts with intact NK cell compartment vs 3AC hosts depleted of NK cells) was “significantly greater tumor rejection”. For the same molecule, the tumor burden (RMA-Rael cells; C57BL/6 hosts depleted of NK cells or not, 3AC vs vehicle) was “profound reduction of tumor burden; also recorded: large reduction in tumor burden”, the lymphoma burden (RMA-Rael cells; C57BL/6 hosts, 5×10^5 RMA-Rael, 2 consecutive days treatment, lavage on third day, vs vehicle) was “dramatic reduction” and the “survival of recipients of primed hematolymphoid cells” value (tumor) was “significantly increased survival”.
